In patent US20050101595A1, “N-containing cycloalkyl-substituted amino-thiazole derivatives and pharmaceutical compositions for inhibiting cell proliferation and methods for their use” (PFIZER INC., priority 2003, published 2005):
Where a name gives a salt, the structure may show the parent alone. Read-outs that look alike come from different tables or passages of the source.

Columns and labels:
[1] = target: human CDK4 and genetically truncated (1-264) cyclin D3 (Homo sapiens, UniProt P11802); experiment: Inhibition of CDK4/Cyclin D Retinoblastoma Kinase Activity; assay type: biochemical; conditions: for Ki: apparent Ki, CDK4/truncated cyclin D3, Rb fragment substrate, 25 μM ATP
human CDK4 and genetically truncated (1-264) cyclin D3, sequence (P11802 whole entry, the tested form may be a part): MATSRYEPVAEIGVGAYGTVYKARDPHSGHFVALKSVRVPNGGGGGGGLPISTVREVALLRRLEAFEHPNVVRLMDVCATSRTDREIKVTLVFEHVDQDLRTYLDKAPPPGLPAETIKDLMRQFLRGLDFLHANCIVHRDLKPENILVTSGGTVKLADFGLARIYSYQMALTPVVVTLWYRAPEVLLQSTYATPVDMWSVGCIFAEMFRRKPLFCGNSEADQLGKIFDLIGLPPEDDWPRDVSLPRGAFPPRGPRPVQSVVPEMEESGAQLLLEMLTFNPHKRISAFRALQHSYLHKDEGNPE
human CDK4 and genetically truncated (1-264) cyclin D3, sequence (P30281 1-264 partner): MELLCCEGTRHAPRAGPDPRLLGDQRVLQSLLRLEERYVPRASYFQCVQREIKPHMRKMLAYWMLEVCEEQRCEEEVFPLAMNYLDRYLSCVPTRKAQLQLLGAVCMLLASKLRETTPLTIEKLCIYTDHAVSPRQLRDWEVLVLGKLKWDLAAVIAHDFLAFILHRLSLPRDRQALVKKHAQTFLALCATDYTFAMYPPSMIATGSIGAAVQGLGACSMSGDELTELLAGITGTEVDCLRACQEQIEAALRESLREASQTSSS
Procedure: Cyclin-dependent kinase activity was measured by quantifying the enzyme-catalyzed, time-dependent incorporation of radioactive phosphate from [^32P]ATP or [^33P]ATP into a protein substrate. Unless noted otherwise, assays were performed in 96-well plates in a total volume of 50 μL, in the presence of 10 mM HEPES (N-[2-hydroxyethyl]piperazine-N′-[2-ethanesulfonic acid]) (pH 7.4), 10 mM MgCl2, 25 μM adenosine triphosphate (ATP), 1 mg/mL ovalbumin, 5 μg/mL leupeptin, 1 mM dithiothreitol, 10 mM β-glycerophosphate, 0.1 mM sodium vanadate, 1 mM sodium fluoride, 2.5 mM ethylene glycol-bis(β-aminoethyl ether)-N,N,N′N′-tetraacetic acid (EGTA), 2% (v/v) dimethylsulfoxide, and 0.03-0.4 μCi [^32/33P]ATP per reaction. Reactions were initiated with enzyme, incubated at 30° C., and terminated after 20 minutes by the addition of ethylenediaminetetraacetic acid (EDTA) to 250 mM. The phosphorylated substrate was then captured on a nitrocellulose or phosphocellulose membrane using a 96-well filtration manifold, and unincorporated radioactivity was removed by repeated washing with 0.85% phosphoric acid. Radioactivity was quantified by exposing the dried membranes to a phosphorimager.
Inhibition was measured relative to control wells that contained all reaction components including 2% (v/v) DMSO but no compound, after subtraction of background radioactivity measured in the absence of enzyme. Apparent Ki values of discrete compounds were measured by assaying enzyme activity in the presence of different inhibitor compound concentrations and subtracting the background radioactivity measured in the absence of enzyme. The kinetic parameters (kcat, Km for ATP) were measured for each enzyme under the usual assay conditions by determining the dependence of initial rates on ATP concentration. Inhibition data were fit to an equation for competitive inhibition using Kaleidagraph (Synergy Software), or were fit to an equation for competitive tight-binding inhibition using the software KineTic (BioKin, Ltd.).
Inhibition of CDK4/Cyclin D Retinoblastoma Kinase Activity:
A complex of human CDK4 and genetically truncated (1-264) cyclin D3 was purified using traditional biochemical chromatographic techniques from insect cells that had been co-infected with the corresponding baculovirus expression vectors (see e.g., Meijer and Kim, “Chemical Inhibitors of Cyclin-Dependent Kinases,” Methods in Enzymol,. vol. 283 (1997), pp. 113-128.). The enzyme complex (5 nM) was assayed with 0.3-0.5 μg of purified recombinant retinoblastoma protein fragment (Rb) as a substrate. The engineered Rb fragment (residues 386-928 of the native retinoblastoma protein; 62.3 kDa) contains the majority of the phosphorylation sites found in the native 106-kDa protein, as well as a tag of six histidine residues for ease of purification. Phosphorylated Rb substrate was captured by microfiltration on a nitrocellulose membrane and quantified using a phosphorimager as described above. For measurement of tight-binding inhibitors, the assay duration was extended to 60 minutes, during which the time-dependence of product formation was linear and initial rate conditions were met.

[2] = target: CDK2/Cyclin A (Homo sapiens, UniProt P24941); experiment: Inhibition of CDK2/Cyclin A Retinoblastoma Kinase Activity; assay type: biochemical; conditions: for Ki: apparent Ki, CDK2/proteolyzed cyclin A, Rb fragment substrate, 25 μM ATP
How it was run: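 CDK2 (10 or 19 nM), insect-cell expressed, gel-filtration purified with truncated cyclin A; Rb fragment substrate; 25 μM ATP; 10 mM HEPES pH 7.4, 10 mM MgCl2; 30° C, 60 or 75 min; EDTA stop; phosphocellulose/nitrocellulose capture, phosphorimager. % inhibition vs DMSO control, no-enzyme background subtracted.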

[3] = test system: HCT-116 cell line; experiment: Inhibition of cell growth, tetrazolium salt (MTT) assay; assay type: cell-based; conditions: for IC50: Homo sapiens, HCT-116, 120 h, MTT, three to five days, read-out: HCT-116 IC50; for HCT-116 % Inhibition at 0.25 μM: 0.25 μM compound
How it was run: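 Growth inhibition by MTT reduction at 540 nm (0.2 mg/mL, 4 h at 37° C, formazan dissolved in DMSO), normalized to cells given only 0.5% v/v DMSO. HCT-116 cultures in McCoy's 5A were dosed 4 h post-plating and kept three to five days at 37° C, 5% CO2.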

[4] = 0.1 μM compound, HCT-116, Table 3
[5] = 0.03 μM compound, Table 4, 0.03 µM

Nc1nc(NC2CCN(C(=O)C3Cc4ccccc43)CC2)sc1C(=O)c1c(F)cccc1F (stereo not drawn) [Example R94]
CDK4 % Inhibition at 0.03 μM ([1]; at 0.03 μM): −5% | CDK2 % Inhibition at 0.03 μM ([2]; at 0.03 μM): 10% | HCT-116 % Inhibition at 0.1 μM ([3]; HCT-116 cells, at 0.1 μM): 0% | HCT-116 5 Inhibition at 0.25 μM ([3]; HCT-116 cells): 42

CCCC(C)C(=O)N1CCC(Nc2nc(N)c(C(=O)c3c(F)cccc3F)s2)CC1 (stereo not drawn) [Example R165]
CDK4 % Inhibition at 0.03 μM ([1]; at 0.03 μM): 22% | CDK2 % Inhibition at 0.03 μM ([2]; at 0.03 μM): 3% | HCT-116 % Inhibition at 0.1 μM ([3]; HCT-116 cells, at 0.1 μM): 0% | HCT-116 5 Inhibition at 0.25 μM ([3]; HCT-116 cells): 42

Nc1nc(NC2CCN(C(=O)c3ccc(Oc4cc(Cl)cc(Cl)c4)o3)CC2)sc1C(=O)c1c(F)cccc1F [Example R69]
CDK4 % Inhibition at 0.03 μM ([1]; at 0.03 μM): 35% | CDK2 % Inhibition at 0.03 μM ([2]; at 0.03 μM): 29% | HCT-116 % Inhibition at 0.1 μM ([3]; HCT-116 cells, at 0.1 μM): 0% | HCT-116 5 Inhibition at 0.25 μM ([3]; HCT-116 cells): 41

COc1c(C(=O)N2CCC(Nc3nc(N)c(C(=O)c4c(F)cccc4F)s3)CC2)csc1Br [Example R50]
CDK4 % Inhibition at 0.03 μM ([1]; at 0.03 μM): 44% | CDK2 % Inhibition at 0.03 μM ([2]; at 0.03 μM): 51% | HCT-116 % Inhibition at 0.1 μM ([3]; HCT-116 cells, at 0.1 μM): 0% | HCT-116 5 Inhibition at 0.25 μM ([3]; HCT-116 cells): 48

Cn1cnc(-c2ccc(S(=O)(=O)N3CCC(Nc4nc(N)c(C(=O)c5c(F)cccc5F)s4)CC3)cn2)c1 [Example I5, Hydrochloride]
Ki [1]: 0.67 nM | Ki [2]: 5.1 nM | IC50 ([3]; first HCT-116 column (c4)): 80 nM | IC50 ([3]; second HCT-116 column (c5)): 500 nM

Nc1nc(NC2CCN(C(=O)CCCC3CCCCC3)CC2)sc1C(=O)c1c(F)cccc1F [Example R102]
CDK4 % Inhibition at 0.03 μM ([1]; at 0.03 μM): 34% | CDK2 % Inhibition at 0.03 μM ([2]; at 0.03 μM): 18% | HCT-116 % Inhibition at 0.1 μM ([3]; HCT-116 cells, at 0.1 μM): 0% | HCT-116 5 Inhibition at 0.25 μM ([3]; HCT-116 cells): 43

Nc1nc(NC2CCN(C(=O)NCc3ccccc3)CC2)sc1C(=O)c1c(F)cccc1F [Example O37]
CDK4 % Inhibition at 0.03 μM ([1]; 0.03 μM compound, Table 2): 12% | CDK2 % Inhibition At 0.03 μM ([2]; 0.03 μM compound, Table 2): 40% | HCT-116 % Inhibition at 0.25 μM ([3]; HCT-116, Table 2): 34%

CCc1cc(Br)ccc1S(=O)(=O)N1CCC(Nc2nc(N)c(C(=O)c3c(F)cccc3F)s2)CC1 [Example P78]
CDK4 % Inhibition at 0.03 μM ([1]; 0.03 μM compound, Table 3): 24% | CDK2 % Inhibition at 0.03 μM ([2]; 0.03 μM compound, Table 3): 17% | HCT-116 % Inhibition at 0.1 μM [3, 4]: 27% | HCT-116 % Inhibition at 0.25 μM ([3]; HCT-116, Table 3): 23%

CN(C)CCCc1ccc(S(=O)(=O)N2CCC(Nc3nc(N)c(C(=O)c4c(F)cccc4F)s3)CC2)cn1 [Example I12, 1-(4-Amino-2-{1-[6-(3-dimethylamino-propyl)-pyridine-3-sulfonyl]-piperidin-4-ylamino}-thiazol-5-yl)-1-(2,6-difluoro-phenyl)-methanone]
Ki [1]: 1.1 nM | Ki [2]: 1.3 nM | IC50 ([3]; first HCT-116 column (c4)): 300 nM | IC50 ([3]; second HCT-116 column (c5)): 3400 nM

Nc1nc(NC2CCN(S(=O)(=O)c3cc(S(=O)(=O)c4ccccc4)cs3)CC2)sc1C(=O)c1c(F)cccc1F [Example P41]
CDK4 % Inhibition at 0.03 μM ([1]; 0.03 μM compound, Table 3): 66% | CDK2 % Inhibition at 0.03 μM ([2]; 0.03 μM compound, Table 3): 80% | HCT-116 % Inhibition at 0.1 μM [3, 4]: 0% | HCT-116 % Inhibition at 0.25 μM ([3]; HCT-116, Table 3): 26%

Nc1nc(NC2CCN(C(=O)CCc3ccccc3)CC2)sc1C(=O)c1c(F)cccc1F [Example R174]
CDK4 % Inhibition at 0.03 μM ([1]; at 0.03 μM): 42% | CDK2 % Inhibition at 0.03 μM ([2]; at 0.03 μM): 21% | HCT-116 % Inhibition at 0.1 μM ([3]; HCT-116 cells, at 0.1 μM): 0% | HCT-116 5 Inhibition at 0.25 μM ([3]; HCT-116 cells): 48

N#Cc1ccc(S(=O)(=O)N2CCC(Nc3nc(N)c(C(=O)c4c(F)cccc4F)s3)CC2)cc1 [Example P47]
CDK4 % Inhibition at 0.03 μM ([1]; 0.03 μM compound, Table 3): 82% | CDK2 % Inhibition at 0.03 μM ([2]; 0.03 μM compound, Table 3): 81% | HCT-116 % Inhibition at 0.1 μM [3, 4]: 0% | HCT-116 % Inhibition at 0.25 μM ([3]; HCT-116, Table 3): 26%

CCCCCCOc1ccc(C(=O)N2CCC(Nc3nc(N)c(C(=O)c4c(F)cccc4F)s3)CC2)cc1 [Example Q30]
CDK4 % Inhibition at 0.03 μM [1, 5]: 42% | CDK2 % Inhibition at 0.03 μM [2, 5]: −4% | HCT-116 % Inhibition at 0.1 μM ([3]; 0.1 μM compound, HCT-116, Table 4): 8% | HCT-116 % Inhibition at 0.25 μM ([3]; HCT-116, Table 4, 0.25 µM): 47%
